Values quoted from earlier work, collected in patent US8586094B2, “Coated tablets” (Jagotec AG, priority 2000, dated 2013).
Read-outs that look alike come from different tables or passages of the source.

CC(C)(Oc1ccc(C(=O)c2ccc(Cl)cc2)cc1)C(=O)O [fenofibric acid]
elimination / plasma half-life: approximately twenty | elimination / plasma half-life (listed as Fenofibric acid): about 20 hours
